According to ChEMBL document CHEMBL4196215 (J Med Chem, 2018):
In brackets after ≈: the same amount, converted by molar mass.

What was measured:
[1] = Plasma concentration in CD1 mouse at 10 mg/kg, ip measured after 7 hrs by LC-MS/MS analysis; type: ADME, organism-based
[2] = Plasma concentration in CD1 mouse at 10 mg/kg, ip measured after 2 hrs by LC-MS/MS analysis; type: ADME, organism-based
[3] = system: Mus musculus; test: AUC (0 to 7 hrs) in CD1 mouse at 10 mg/kg, ip measured after 7 hrs by LC-MS/MS analysis; type: ADME, organism-based; parameters: dose 10 mg/kg, time < 7 hr, route intraperitoneal; details: in vivo
[4] = Plasma concentration in CD1 mouse at 10 mg/kg, ip measured after 4 hrs by LC-MS/MS analysis; type: ADME, organism-based
[5] = Thermodynamic solubility of the compound by quantitative nitrogen detection assay; type: physicochemical; details: read-out: Therm_solubility
[6] = Plasma concentration in CD1 mouse at 10 mg/kg, ip measured after 0.5 hrs by LC-MS/MS analysis; type: ADME, organism-based
[7] = Metabolic stability in CD1 mouse liver microsomes assessed as half life at 1 uM in presence of NADPH by LC-MS/MS analysis; type: ADME, microsome
[8] = system: Mus musculus; test: Time at which plasma concentration stays above invitro effective concentration for inhibition of ALDH1A3 in human OVCAR5 cells in CD1 mouse at 10 mg/kg, ip by LC-MS/MS analysis; type: organism-based; details: in vivo
[9] = system: Mus musculus; test: Time at which plasma concentration stays above invitro effective concentration for inhibition of ALDH1A3 in human PEO1 cells in CD1 mouse at 10 mg/kg, ip by LC-MS/MS analysis; type: organism-based; details: in vivo

| Compound | solubility thermodynamic [5] | t1/2 [7] | other results |
| --- | --- | --- | --- |
| O=c1c2cn(C3COC3)nc2nc(SCc2cccc(F)c2)n1-c1ccccc1 | 5 µM (≈ 2.04 µg/mL) |  | concentration at 7 h [1]: 900 nM; concentration at 2 h [2]: 5200 nM; AUC [3]: 27.8 µM·h; concentration at 4 h [4]: 3000 nM; concentration at 0.5 h [6]: 7600 nM |
| Cn1ncc2c(=O)n(-c3cccc(Cl)c3)c(SCc3cccc(F)c3)nc21 | 55 µM (≈ 22 µg/mL) |  |  |
| Cn1ncc2c(=O)n(-c3ccccc3)c(SCc3cccc(F)c3)nc21 | < 0.7 µM |  |  |
| Cn1cc2c(=O)n(-c3ccccc3)c(SCc3cccc(F)c3)nc2n1 | 69 µM (≈ 25.3 µg/mL) | 13 min |  |
| Cn1ncc2c(=O)n(CCc3ccccc3)c(SCc3cccc(F)c3)nc21 | 3 µM (≈ 1.18 µg/mL) |  |  |
| Cc1ccccc1-n1c(SCc2cccc(F)c2)nc2[nH]ncc2c1=O | 2 µM (≈ 0.733 µg/mL) | 9 min |  |

Continued, in another order:

| solubility thermodynamic [5] | t1/2 [7] | Compound | other results |
| --- | --- | --- | --- |
| 53 µM (≈ 22.4 µg/mL) | 27 min | O=c1c2cn(CC3COC3)nc2nc(SCc2cccc(F)c2)n1-c1ccccc1 | concentration at 7 h [1]: 100 nM; concentration at 2 h [2]: 2600 nM; AUC [3]: 11 µM·h; concentration at 4 h [4]: 600 nM; concentration at 0.5 h [6]: 5600 nM; Time [8]: 4 h; Time [9]: 4 h |
| 38 µM (≈ 14.5 µg/mL) |  | Cc1ccccc1-n1c(SCc2cccc(F)c2)nc2c(cnn2C)c1=O |  |
| 5 µM (≈ 1.9 µg/mL) |  | Cn1ncc2c(=O)n(Cc3ccccc3)c(SCc3cccc(F)c3)nc21 |  |
| 8 µM (≈ 3.27 µg/mL) |  | O=c1c2cnn(C3COC3)c2nc(SCc2cccc(F)c2)n1-c1ccccc1 |  |
